Patent publication US6524810B2, “Method of making bioluminescent assay reagent based on non-viable E. coli” (Azur Environmental, priority 1998, dated 2003)

Columns and labels:
Type in all cases: cell-based
[1] = test system: recombinant bioluminescent E. coli strain HB101; assay: Light output of reconstituted freeze dried assay reagent; details: cells exposed to 1.5 mg/ml Zeocin for 5 hours, reconstituted in 0.2M sucrose
Description: Five hours after the addition of Zeocin™ or water the remaining bacterial cells in the Zeocin™ treated and control cultures were harvested by the centrifugation, washed (to remove traces of Zeocin™ from the Zeocin™ treated culture), re-centrifuged and resuspended in cryoprotectant to an OD630 of 0.25. 200 μl aliquots of the cells in cryoprotectant were dispensed into single shot vials, and freeze dried. Freeze dried samples of the Zeocin™ treated cells and control cells were reconstituted in 0.2M sucrose to form assay reagents and the light output of the assay reagents measured at various times after reconstitution.

[2] = test system: recombinant bioluminescent E. coli strain HB101; assay: Inactivation of bioluminescent E. coli: viable count time course; details: 1.5 mg/ml Zeocin; exponential growth phase culture
Description: (§1) 1. Bioluminescent genetically modified E. coil strain HB101 (E. coli HB101 made bioluminescent by transformation with a plasmid carrying the lux operon of Vibrio fischeri constructed by the method of Shaw and Kado, as described in Biotechnology 4: 560-564) were grown from a frozen stock in 5 ml of low salt medium (LB (5 g/ml NaCl)+glycerol+MgSO4) for 24 hours.
(§2) 2. 1 ml of the 5 ml culture was then used to inoculate 200 ml of low salt medium in a shaker flask and the resultant culture grown to an OD630 of 0.407 (exponential growth phase).
(§3) 3. 50 ml of this culture was removed to a fresh sterile shaker flask (control cells).
4. Zeocin™ was added to the 150 ml of culture in the original shaker flash, to a final concentration of 1.5 mg/ml. […]
5. The time course of cell inactivation was monitored by removing samples from the culture at 5, 60, 120, 180, 240 and 300 minutes after the addition of Zeocin™ and taking measurements of both light output (measured using a Deltatox luminometer) and viable count (per ml, determined using the method given in Example 3 below) for each of the samples. […]
5. The number of bacterial colonies present for each of the three aliquots at each of the serial dilutions were counted and the values averaged. Viable count was calculated per ml of bacterial culture.

[3] = test system: Zeocin treated recombinant bioluminescent E. coli HB101 assay reagent; assay: ZnSO4 sensitivity assay, Zeocin treated assay reagent; details: for SENSITIVITY-EC50 VALUES, ZEOCIN TREATED: 15 minutes exposure to ZnSO4, % toxic effect on light output
Description: (§4) 1. Bioluminescent genetically modified E. coil strain HB101 (E. coli HB101 made bioluminescent by transformation with a plasmid carrying the lux operon of vibrio fischeri constructed by the method of Shaw and Kado, as described in Biotechnology 4: 560-564) was grown in fermenter as a batch culture in low salt medium (LB(5 g/ml NaCl)+glycerol+MgSO4).
(§5) 2. Two aliquots of the culture were removed from the fermenter into separate sterile shaker flasks at each of three different stages of growth i.e. at OD630 values of 0.038 (lag phase growth), 1.31 (mid-exponential phase growth) and 2.468 (stationary phase growth).
3. One aliquot of culture for each of the three growth stages was inactivated by contact with Zeocin™ (1 mg Zeocin™ added per 2.5×10^6 cells, i.e. the concentration of Zeocin™ per cell is kept constant) for 300 minutes and then processed into assay reagent by freeze drying and reconstitution, as described in part (B) of Example 1.
(§6) 5. Samples of each of the three Zeocin™ treated and three control assay reagents were then evaluated for sensitivity to toxicant (ZnSO4) according to the following assay protocol:
1. ZnSO4 solutions were prepared in pure water at 30, 10, 3, 1, 0.3 and 0.1 ppm. Pure water was also used as a control.
2. Seven vials of each of the three Zeocin™ treated and each of the three control assay reagents (i.e. one for each of the six ZnSO4 solutions and one for the pure water control) were reconstituted using 0.5 ml of reconstitution solution (eg 0.2M sucrose) and then left to stand at room temperature for 15 minutes to allow the light output to stabilize. Base line (time zero) readings of light output were then measured for each of the reconstituted reagents.
3. 0.5 ml aliquots of each of the six ZnSO4 solutions and the pure water control were added to separate vials of reconstituted assay reagent. This was repeated for each of the different Zeocin™ treated and control assay reagents.
(§7) 4. The vials were incubated at room temperature and light output readings were taken 5, 10, 15, 20, 25 and 30 minutes after addition of ZnSO4 solution.
5. The % toxic effect for each sample was calculated as follows: [formula]
where: Co=light in control at time zero
Ct=light in control at reading time
So=light in sample at time zero
(§8) St=light in sample at reading time

[4] = test system: recombinant bioluminescent E. coli strain HB101; assay: Light output of culture during Zeocin treatment (Deltatox luminometer); details: 1.5 mg/ml Zeocin; 5 to 300 minutes
Description: as §1, §2, §3
4. Zeocin™ was added to the 150 ml of culture in the original shaker flash, to a final concentration of 1.5 mg/ml. At the same time, an equivalent volume of water was added to the 50 ml culture removed from the original flask (control cells).
5. The time course of cell inactivation was monitored by removing samples from the culture at 5, 60, 120, 180, 240 and 300 minutes after the addition of Zeocin™ and taking measurements of both light output (measured using a Deltatox luminometer) and viable count (per ml, determined using the method given in Example 3 below) for each of the samples. Samples of the control cells were removed at 5 and 300 minutes after the addition of water and measurements of light output and viable count taken as for the Zeocin™ treated cells.

[5] = test system: control (Zeocin untreated) recombinant bioluminescent E. coli HB101 assay reagent; assay: ZnSO4 sensitivity assay, control assay reagent; details: 15 minutes exposure to ZnSO4, % toxic effect on light output
Description: as §4, §5
4. An equal volume of water was added to the second aliquot of culture for each of the three growth stages and the cultures processed into assay reagent as described above.
as §6
1. […]
2. […] Base line (time zero) readings of light output were then measured for each of the reconstituted reagents. […]
as §7
5. The % toxic effect for each sample was calculated as follows: [formula] […]
Ct=light in control at reading time […]
as §8

Cc1c(N)nc([C@H](CC(N)=O)NC[C@H](N)C(N)=O)nc1C(=O)N[C@H](C(=O)N[C@H](C)[C@@H](O)[C@H](C)C(=O)N[C@H](C(=O)NCCC1=N[C@@H](c2nc(C(=O)NCCCCN=C(N)N)cs2)CS1)[C@@H](C)O)[C@@H](O[C@@H]1O[C@@H](CO)[C@@H](O)[C@H](O)[C@@H]1O[C@H]1O[C@H](CO)[C@@H](O)[C@H](OC(N)=O)[C@@H]1O)c1cnc[nH]1 [Zeocin™, phleomycin D1]
light output of reconstituted assay reagent versus control (Zeocin untreated) cells [1]: not significantly different
contact time for complete inactivation of the culture (viable count) [2]: 3 h
effect of Zeocin treatment on sensitivity of assay reagent to ZnSO4 ([3]; 1 mg Zeocin per 2.5×10^6 cells for 300 minutes, three growth stages, versus control reagents): does not significantly affect
light output from the culture with Zeocin contact time [4]: decrease gradually

O=S(=O)([O-])[O-].[Zn+2] [ZnSO4]
SENSITIVITY-EC50 VALUES, ZEOCIN TREATED ([3]; Expotential phase assay reagent): 0.446 ppm ZnSO4
SENSITIVITY-EC50 VALUES, ZEOCIN TREATED ([3]; Lag Phase assay reagent): 1.445 ppm ZnSO4
SENSITIVITY-EC50 VALUES, ZEOCIN TREATED ([3]; Stationary phase assay reagent): 0.426 ppm ZnSO4
SENSITIVITY-EC50 VALUES, CONTROL CELLS ([5]; Lag Phase assay reagent): 1.580 ppm ZnSO4
SENSITIVITY-EC50 VALUES, CONTROL CELLS ([5]; Stationary phase assay reagent): 0.457 ppm ZnSO4
